Laboratory results reported in US8865724B2, “Preparation of 2-methyl-4-amino-5(substituted-1H-1,2,3-triazolyl)methylpyrimidine derivatives and microbicidal activity thereof” (Central China Normal University, priority 2011, dated 2014).

Tests used:
[1] = system: Rice Sheath Blight Disease; assay: Microbicidal activity, spray then strip inoculation (Embodiment 8); details: for pest or weed control at 500 µg/g: Oryza sativa, read-out: Rice Sheath Blight Disease Average inhibition rate (%)
Method: (Pseudomonassyringaepv. tomato (Okabe) Young, Dye & Wilkie), Cucumber Angular Leaf Spot, Rice Sheath Blight Disease (Rhizoctonia solani), Corynespora Leaf Spot of Cucumber (Corynespora cassiicola), Downy Mildew of Cucumber (Cucumber Downy Mildew).
Testing agents and control agents were sprayed uniformly at A.M. of a sunshine day on the cucumber seminal leaves. After 2 hours, the leaves were inoculated with pathogenic microbes and cultured at humidity. […] Strip inoculation is used for Rice Sheath Blight Disease and phytophthora blight of pepper, in which the liquor was sprayed and after 2 hours, inoculation of strips was performed followed by culturing at humidity. After full occurrence of diseases in the control group, state of illness was examined according to grading standards, and a disease index and inhibition rate were calculated.

Downy Mildew of Cucumber = assay: Microbicidal activity on cucumber seedlings, spray then spore inoculation (Embodiment 8); details: for pest or weed control at 500 µg/g: Cucumis sativus, read-out: Downy Mildew of Cucumber Average inhibition rate (%)
[2] = system: Corynespora Leaf Spot of Cucumber; assay: as above; details: for pest or weed control at 500 µg/g: Corynespora, in Cucumis sativus, read-out: Corynespora Leaf Spot of Cucumber Average inhibition rate (%)
[3] = testing concentration of 500 μg/g

Compound	melting point [°C]	other results
Cc1ncc(Cn2cc(COc3ccc(Br)cc3)nn2)c(N)n1 [Compound 21]	167 to 168	–
Cc1ncc(Cn2nnc(COC(=O)c3ccccc3F)c2I)c(N)n1 [Compound 93]	187 to 188	–
Cc1ccc(OCC(=O)NCc2cn(Cc3cnc(C)nc3N)nn2)cc1 [Compound 70]	117 to 119	–
Cc1ncc(Cn2cc(COC(=O)c3cccc([N+](=O)[O-])c3)nn2)c(N)n1 [Compound 41]	159 to 160	–
Cc1ncc(Cn2cc(COC(=O)COc3ccc(Cl)cc3)nn2)c(N)n1 [Compound 56]	152 to 153	–
Cc1ncc(Cn2nnc(CNC(=O)c3ccc([N+](=O)[O-])cc3)c2I)c(N)n1 [Compound 101]	223 to 224	–
Cc1ncc(Cn2cc(COc3ccc(C#N)cc3)nn2)c(N)n1 [Compound 22]	185 to 186	–
Cc1ncc(Cn2nnc(COC(=O)c3ccc(F)cc3)c2I)c(N)n1 [Compound 94]	207 to 209	–
Cc1ncc(Cn2cc(CNC(=O)c3ccc([N+](=O)[O-])cc3)nn2)c(N)n1 [Compound 47]	239 to 240	–
Cc1ncc(Cn2cc(COC(=O)COc3ccc([N+](=O)[O-])cc3Cl)nn2)c(N)n1 [Compound 67]	145 to 148	–
Cc1ncc(Cn2cc(COC(=O)c3ccccc3Br)nn2)c(N)n1 [Compound 40]	174 to 176	–
Cc1ncc(Cn2cc(CNC(=O)c3ccc(F)cc3)nn2)c(N)n1 [Compound 44]	211 to 212	–
Cc1ncc(Cn2cc(COC(=O)COc3ccc([N+](=O)[O-])cc3)nn2)c(N)n1 [Compound 66]	145 to 148	–
Cc1ncc(Cn2nnc(CNC(=O)c3ccccc3Cl)c2I)c(N)n1 [Compound 100]	186 to 188	–
Cc1ncc(Cn2cc(COc3ccc(F)cc3)nn2)c(N)n1 [Compound 20]	178 to 179	–
Cc1ncc(Cn2nnc(CNC(=O)c3ccccc3Br)c2I)c(N)n1 [Compound 109]	200 to 202	–
Cc1ncc(Cn2nnc(COc3ccccc3[N+](=O)[O-])c2I)c(N)n1 [Compound 80]	178 to 180	–
COc1ccc(OCC(=O)NCc2cn(Cc3cnc(C)nc3N)nn2)cc1 [Compound 75]	165 to 166	–
Cc1ncc(Cn2cc(COC(=O)COc3cccc(C(F)(F)F)c3)nn2)c(N)n1 [Compound 62]	138 to 140	–
Cc1ccc(C(=O)NCc2cn(Cc3cnc(C)nc3N)nn2)cc1 [Compound 45]	132 to 133	–
Cc1cccc(OCc2cn(Cc3cnc(C)nc3N)nn2)c1 [Compound 19]	58 to 59	–
Cc1ncc(Cn2cc(CNC(=O)COc3ccc(Br)cc3)nn2)c(N)n1 [Compound 74]	105 to 106	–
Cc1ncc(Cn2cc(CNC(=O)c3ccccc3F)nn2)c(N)n1 [Compound 46]	205 to 206	–
Cc1ncc(Cn2nnc(COC(=O)c3ccc([N+](=O)[O-])cc3Cl)c2I)c(N)n1 [Compound 96]	183 to 184	–

Compound	melting point [°C]	other results
Cc1ccc(C(=O)NCc2nnn(Cc3cnc(C)nc3N)c2I)cc1 [Compound 106]	180 to 182	–
Cc1ccc(OCC(=O)OCc2cn(Cc3cnc(C)nc3N)nn2)cc1 [Compound 57]	149 to 151	–
jingangmycin [reference compound]	–	Rice Sheath Blight Disease Average inhibition rate (%) [1, 3]: 70%; Downy Mildew of Cucumber Average inhibition rate (%) (Downy Mildew of Cucumber; [3]): 70%; Corynespora Leaf Spot of Cucumber Average inhibition rate (%) [2, 3]: 70%
Cc1ncc(Cn2cc(CNC(=O)COc3ccc([N+](=O)[O-])cc3)nn2)c(N)n1 [Compound 73]	143 to 144	–
CCOC(=O)c1ccc(OCc2nnn(Cc3cnc(C)nc3N)c2I)cc1 [Compound 87]	146 to 147	–
Cc1ncc(Cn2cc(CNC(=O)COc3cccc(C)c3C)nn2)c(N)n1 [Compound 77]	169 to 170	–
Cc1ncc(Cn2nnc(COc3ccc([N+](=O)[O-])cc3Cl)c2I)c(N)n1 [Compound 30]	223 to 225	–
Cc1ncc(Cn2nnc(COc3ccccc3Br)c2I)c(N)n1 [Compound 85]	145 to 147	–
COc1ccc(C(=CC(=O)N2CCOCC2)c2ccc(Cl)cc2)cc1OC [Dimethomorph, reference compound]	–	pest or weed control at 500 µg/g [1]: 90%; pest or weed control at 500 µg/g (Downy Mildew of Cucumber): 90%; pest or weed control at 500 µg/g [2]: 70%
Cc1ncc(Cn2nnc(CNC(=O)c3cccc(Cl)c3)c2I)c(N)n1 [Compound 99]	197 to 198	–
Cc1ncc(Cn2cc(CNC(=O)c3ccc(Cl)cc3)nn2)c(N)n1 [Compound 48]	165 to 167	–
Cc1ncc(Cn2cc(COC(=O)COc3cccc(C)c3C)nn2)c(N)n1 [Compound 63]	168 to 171	–
Cc1ncc(Cn2nnc(COC(=O)c3ccc([N+](=O)[O-])cc3)c2I)c(N)n1 [Compound 95]	192 to 193	–
COc1ccc(OCC(=O)OCc2cn(Cc3cnc(C)nc3N)nn2)cc1 [Compound 58]	128 to 129	–
Cc1ncc(Cn2cc(CNC(=O)c3cccc(Cl)c3)nn2)c(N)n1 [Compound 50]	213 to 214	–
Cc1ncc(Cn2nnc(COC(=O)c3ccccc3Br)c2I)c(N)n1 [Compound 98]	200 to 202	–
Cc1ncc(Cn2nnc(CNC(=O)c3ccccc3F)c2I)c(N)n1 [Compound 105]	204 to 206	–
Cc1ncc(Cn2cc(COC(=O)COc3ccc(Cl)c(C)c3)nn2)c(N)n1 [Compound 55]	163 to 165	–
Cc1ncc(Cn2nnc(CNC(=O)c3ccc(Cl)cc3)c2I)c(N)n1 [Compound 103]	231 to 233	–
Cc1ncc(Cn2cc(CNC(=O)COc3ccc(Cl)cc3)nn2)c(N)n1 [Compound 71]	124 to 125	–
Cc1ncc(Cn2nnc(CNC(=O)c3cccc([N+](=O)[O-])c3)c2I)c(N)n1 [Compound 108]	202 to 204	–
Cc1ncc(Cn2nnc(COC(=O)c3ccc(Cl)cc3)c2I)c(N)n1 [Compound 91]	192 to 193	–
Cc1ncc(Cn2cc(COC(=O)c3ccc([N+](=O)[O-])cc3Cl)nn2)c(N)n1 [Compound 42]	129 to 130	–
Cc1ncc(Cn2nnc(COC(=O)c3cccc(Cl)c3)c2I)c(N)n1 [Compound 90]	185 to 187	–

Compound	melting point [°C]	other results
Cc1ncc(Cn2nnc(COc3ccc(Cl)cc3Cl)c2I)c(N)n1 [Compound 83]	176 to 177	–
Cc1ncc(Cn2cc(CNC(=O)c3ccccc3Br)nn2)c(N)n1 [Compound 52]	233 to 234	–
Cc1ncc(Cn2nnc(COc3cccc(C(F)(F)F)c3)c2I)c(N)n1 [Compound 81]	146 to 148	–
Cc1ncc(Cn2cc(CNC(=O)COc3ccccc3)nn2)c(N)n1 [Compound 78]	168 to 169	–
Cc1ncc(Cn2cc(CNC(=O)c3ccccc3Cl)nn2)c(N)n1 [Compound 49]	217 to 218	–
Cc1ncc(Cn2cc(CNC(=O)COc3ccc([N+](=O)[O-])cc3Cl)nn2)c(N)n1 [Compound 72]	183 to 184	–
COC(=O)NC(=S)Nc1ccccc1NC(=S)NC(=O)OC [Thiophanate-methyl, reference compound]	–	pest or weed control at 500 µg/g [1]: 85%; pest or weed control at 500 µg/g (Downy Mildew of Cucumber): 20%; pest or weed control at 500 µg/g [2]: 80%
Cc1ncc(Cn2cc(CNC(=O)c3cccc([N+](=O)[O-])c3)nn2)c(N)n1 [Compound 53]	188 to 189	–
Cc1ncc(Cn2cc(CNC(=O)COc3ccc(F)cc3Cl)nn2)c(N)n1 [Compound 79]	125 to 126	–
Cc1ncc(Cn2nnc(CNC(=O)c3ccc([N+](=O)[O-])cc3Cl)c2I)c(N)n1 [Compound 107]	183 to 184	–
Cc1ncc(Cn2nnc(CNC(=O)c3ccc(F)cc3)c2I)c(N)n1 [Compound 104]	217 to 219	–
Cc1ncc(Cn2nnc(CNC(=O)c3ccccc3)c2I)c(N)n1 [Compound 102]	218 to 220	–
Cc1ncc(Cn2cc(COC(=O)COc3cc(Cl)c(Cl)c(Cl)c3)nn2)c(N)n1 [Compound 64]	160 to 161	–
Cc1ncc(Cn2nnc(COC(=O)c3cccc([N+](=O)[O-])c3)c2I)c(N)n1 [Compound 97]	201 to 202	–
Cc1ncc(Cn2cc(COC(=O)COc3ccc(Cl)cc3C)nn2)c(N)n1 [Compound 59]	138 to 140	–
Cc1ncc(Cn2cc(COC(=O)COc3ccc(C(C)(C)C)cc3)nn2)c(N)n1 [Compound 61]	107 to 110	–
Cc1ncc(Cn2cc(COC(=O)COc3ccc(F)cc3Cl)nn2)c(N)n1 [Compound 60]	144 to 146	–
Cc1ncc(Cn2nnc(COC(=O)c3ccccc3Cl)c2I)c(N)n1 [Compound 89]	185 to 187	–
Cc1ncc(Cn2cc(COC(=O)COc3ccccc3[N+](=O)[O-])nn2)c(N)n1 [Compound 65]	158 to 160	–
Cc1ccc(C(=O)OCc2nnn(Cc3cnc(C)nc3N)c2I)cc1 [Compound 92]	200 to 201	–
Cc1ncc(Cn2cc(CNC(=O)c3ccc([N+](=O)[O-])cc3Cl)nn2)c(N)n1 [Compound 51]	> 260	–
Cc1ncc(Cn2cc(COc3ccccc3C)nn2)c(N)n1 [Compound 18]	153 to 154	–
Cc1ncc(Cn2cc(CNC(=O)COc3ccccc3Cl)nn2)c(N)n1 [Compound 69]	201 to 202	–
Cc1ccc(OCc2cn(Cc3cnc(C)nc3N)nn2)cc1 [Compound 17]	157 to 158	–
